How the values were obtained:
[1] = tested on: ovarian estradiol synthesis; assay: Stimulation of ovarian oestrogen synthesis (HPG axis) in intact adult rats; format: in vivo, rat; conditions: hormonally intact adult rats, daily for 10 days; quotient of peripheral estradiol values after and before treatment
Excerpt: The clinical use both of pure anti-oestrogens and of various SERMs for the treatment of premenopausal women is limited by their property of stimulating the ovaries through activation of the hypothalamic-pituitary-gonadal axis (HPG axis), which leads to the increase in peripheral estradiol levels (Palomba, S., Orio, F., Jr., Morelli, M., Russo, T., Pellicano, M., Zupi, E., Lombardi, G., Nappi, C., Panici, P. L., and Zullo, F. (2002). Raloxifene administration in premenopausal women with uterine leiomyomas: a pilot study. J Clin Endocrinol Metab 87, 3603-3608). This stimulation of the HPG axis is associated with penetration of the blood-brain barrier and penetration of the brain. To investigate the ovary-stimulating properties of the claimed pharmacological compounds, hormonally intact adult rats were treated with the substances daily for a period of 10 days. The study end point is the quotient of peripheral estradiol values after and before treatment.

oestrogen receptor (ER) = target: T1, oestrogen receptor (ER) (Homo sapiens, UniProt P03372); assay: Anti-oestrogenic action in MVLN cells (inhibition of estradiol-induced luciferase); format: cell-based; conditions: inhibition of estradiol-induced luciferase signal, value of Ex. 44 is a mean value, read-out: Antioestrogenic action in vitro: MVLN transactivation antagonism IC50
T1 construct: These MVLN cells express, along with the functional oestrogen receptor (ER), a reporter construct; endogenous in cells; host or cells: MVLN cells (MCF7 derivative carrying a luciferase reporter construct)
T1 sequence (P03372 1-595): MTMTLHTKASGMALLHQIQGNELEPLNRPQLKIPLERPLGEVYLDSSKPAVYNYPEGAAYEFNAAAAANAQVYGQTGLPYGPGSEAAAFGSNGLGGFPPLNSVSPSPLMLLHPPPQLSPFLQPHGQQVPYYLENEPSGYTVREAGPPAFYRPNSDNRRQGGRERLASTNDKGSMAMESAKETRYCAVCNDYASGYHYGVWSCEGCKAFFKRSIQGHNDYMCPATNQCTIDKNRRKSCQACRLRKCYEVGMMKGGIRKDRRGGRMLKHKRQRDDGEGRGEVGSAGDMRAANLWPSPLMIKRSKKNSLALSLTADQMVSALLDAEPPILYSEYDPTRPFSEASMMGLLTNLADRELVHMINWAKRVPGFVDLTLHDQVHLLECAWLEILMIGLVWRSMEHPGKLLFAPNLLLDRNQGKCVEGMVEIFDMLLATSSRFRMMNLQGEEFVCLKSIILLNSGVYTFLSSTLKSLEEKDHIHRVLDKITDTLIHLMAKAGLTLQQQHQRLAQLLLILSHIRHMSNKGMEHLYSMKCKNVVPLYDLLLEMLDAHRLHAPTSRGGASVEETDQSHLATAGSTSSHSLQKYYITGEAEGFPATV
In short: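 Inhibition of estradiol-driven luciferase expression was measured with compounds co-applied alongside oestrogen. Reporter system: MCF7-derived MVLN cells expressing endogenous functional ER and an ER-responsive luciferase construct.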

uterus [2] = assay: Anti-uterus growth test in the adult rat; conditions: sc, 72 h; ovariectomized adult rat, s.c. 3 days with 1.5 μg/kg/day 17β-estradiol; inhibition of uterus growth; value of 44 is a mean of two measurements; read-out: anti-oestrogenic activity in vivo in % at a dose of 0.3 mg/kg (rat)
Excerpt: The uterus of oestrogen-substituted rats can be used as a test model for detecting a direct action of substances with anti-oestrogenic properties. The parameter of oestrogenic action is estradiol-induced uterus growth in rats, which is inhibited by simultaneous administration of a substance with anti-oestrogenic action. The experimental animals (n=5-6 animals/group) were ovariectomized before the start of the test, to rule out the influence of endogenous oestrogens. After a phase of 6 to 10 days, the test substances are administered s.c. on 3 consecutive days (d1-d3) in combination with a substitution dose of 1.5 μg/kg/day 17β-estradiol. 17β-estradiol alone serves as positive control, and the excipients serve as negative control. On day 4 (d4) the animals are killed, and the uteri and vaginae are removed and weighed. The organ weights are converted to mg/100 g body weight, then the mean value and the standard deviation are calculated for each dosage. The inhibition of uterus growth induced by 17β-estradiol is shown as percentage inhibition.

uterus [3] = assay: Oestrogenic action - uterus growth test in the infantile rat; format: in vivo; conditions: sc, 72 h, s.c. 3 days, relative to E2 0.3 μg/animal, read-out: maximum uterotropic action (% estradiol action) in the dose range from 0.03 to 3 mg/kg; for Emax at 0.03 mg/kg: maximum at dose 0.03 mg/kg; for Emax at 0.3 mg/kg: maximum at dose 0.3 mg/kg
Procedure: Both the uterus and the vagina show a weight increase that is dependent on oestrogenic efficacy, in infantile animals when they are treated with a substance with oestrogenic action. In the uterus, under oestrogenic action there is also proliferation and increase in height of the luminal epithelium.
Immature, intact rats (n=5-6 animals/group; body weight 40-50 g) receive the substance s.c. for 3 days (d1-d3). On day 4 (d4) the animals are killed with CO2. The uteri are removed and weighed. For histological assessment, a piece of uterus, preferably a uterine horn, is fixed in formaldehyde and embedded in paraffin. The stimulation of the organ weights (relative to mg/100 g body weight) and the height of the epithelium are shown as percentage stimulation in comparison with the reference compound 17β-estradiol (E2). (Substitution dose of E2 0.3 μg/animal).

[4] = tested on: peripheral cholesterol level; assay: Hepatic oestrogenicity in the ovariectomized adult rat (plasma cholesterol); format: in vivo; conditions: ovariectomized adult rats, s.c. daily for 6 days; cholesterol day 0 vs day 8
Excerpt: Substances with oestrogenic action influence the synthesis of various plasma proteins, of coagulation factors and fibrinolytic factors in the liver. […] In the present investigations, lowering of the peripheral cholesterol level is used as a surrogate parameter for analysis of the hepatic oestrogenicity of the claimed pharmacological compounds. Adult ovariectomized rats were, after a pause of 6-10 days, treated daily for 6 days with the substances by subcutaneous application. The plasma cholesterol levels were determined and compared before and after the respective treatment.

ERα protein = target: T2, ERα protein (Homo sapiens, UniProt P03372); assay: Effect on stability of ERα protein in T47D breast cancer cells (ELISA); format: cell-based; conditions: 24 hours, ER protein by ELISA
T2 construct: These cells express the ER in functional form; endogenous in cells; host or cells: T47D breast cancer cells
T2 sequence (P03372 1-595): T1 sequence (P03372 1-595)
Procedure: As well as inhibition of the transcriptional activity of the ER, anti-oestrogens influence the expression level of the ER in the target tissues through stimulation of the proteolytic degradation of the ER. In comparison with an ER-E2 complex, the ER bound in a complex with the pure anti-oestrogen fulvestrant has a substantially shorter half-life.
The effect of the claimed pharmacological compounds on the stability of the ER was analysed in T47D breast cancer cells (see Table 1, column Standardized ER-destabilization [%]). These cells express the ER in functional form. The cells are incubated for 24 hours with the claimed compounds at a concentration of 1 μM. After lysis of the cells, the content of ER protein was determined by ELISA. […] Compounds with ER content below 30% are classified as destabilizing.
As described, the claimed pharmacological substances were investigated for their action on the stability of the ERα protein (see Table 1).

endometriosis lesions = assay: Endometriosis model in the rat (autologous transplantation); format: in vivo; conditions: rat
Excerpt: Using intact adult female rats, experimental endometriosis was induced in the autologous transplantation model based on Vernon M. W. and Wilson E. A., 1985 (Fertil Steril. 44(5):684-694). A uterine horn was removed from animals that were exclusively in oestrus, the myometrium was separated from the endometrium and biopsies with dimensions of 4×4 mm were obtained from the endometrial tissue. Two uterine fragments were transplanted onto the inside of the abdominal wall (peritoneum) and two uterine fragments were transplanted onto the mesenterium of the same animal (4 fragments per animal). After 21 days the animals with endometriosis were laparotomized, and the size of the transplants was determined. The animals were treated after laparotomy and then daily in the morning with the stated dosages of the selected claimed substances by subcutaneous administration. Finally, 28 days after the start of treatment (49 days after transplantation), all the animals were laparotomized again and the size of the lesion was measured and was correlated with the size before the start of treatment.

Row | Stimulation of ovarian oestrogen synthesis: factor at a dose of 3 mg/kg rat [1] | IC50 (oestrogen receptor (ER)) [nM] | hepatic oestrogenicity: lowering of the peripheral cholesterol level [4] | relative ERα content (% ER) (ERα protein) [%] | Structure (SMILES) | inhibition in vivo at 0.3 mg/kg (uterus [2]) [%] | Emax at 0.03 mg/kg (uterus [3]) [%] | Emax at 0.3 mg/kg (uterus [3]) [%] | dosage with significant reduction in sizes of lesions (endometriosis lesions; 28 days of treatment, 115 tested 0.1-1 mg/kg, 44 tested 0.3-10 mg/kg) [mg/kg] | reduction of lesion size (endometriosis lesions; s.c. daily, 4 weeks (FIG. 2A, FIG. 2B)) | Emax at 0.1 mg/kg (uterus [3]; maximum at dose 0.1 mg/kg) [%]
1 | 2.1 | 18 |  |  | CN(CCCCCCC1=C(c2ccc(F)cc2)CCCc2cc(O)ccc21)CCCS(=O)(=O)CCCC(F)(F)F [Example 117, 8-(4-fluorophenyl)-9-[6-(methyl{3-[(4,4,4-trifluorobutyl)sulphonyl]propyl}amino)hexyl]-6,7-dihydro-5H-benzo[7]annulen-3-ol] | 65 |  | 18 |  |  | 
2 | 1.4 | 10 |  |  | CN(CCCCCCC1=C(c2ccc(F)cc2)CCCc2cc(O)ccc21)CCCCS(=O)(=O)CCCC(F)(F)C(F)(F)F [Example 114, 8-(4-fluorophenyl)-9-[6-(methyl{4-[(4,4,5,5,5-pentafluoropentyl)sulphonyl]butyl}amino)hexyl]-6,7-dihydro-5H-benzo[7]annulen-3-ol] | 49 |  |  |  |  | 
3 |  | 30 |  |  | CN(CCCCCCC1=C(c2ccc(F)cc2)CCCc2cc(O)ccc21)CCCCS(=O)(=O)CCC(F)(F)F [Example 51, 8-(4-Fluorophenyl)-9-[6-(methyl{4-[(3,3,3-trifluoropropyl)sulphonyl]butyl}amino)hexyl]-6,7-dihydro-5H-benzo[7]annulen-3-ol] | 59 |  |  |  |  | 22

Second part, the molecule before the results:

Row | Structure (SMILES) | Stimulation of ovarian oestrogen synthesis: factor at a dose of 3 mg/kg rat [1] | IC50 (oestrogen receptor (ER)) [nM] | hepatic oestrogenicity: lowering of the peripheral cholesterol level [4] | relative ERα content (% ER) (ERα protein) [%] | inhibition in vivo at 0.3 mg/kg (uterus [2]) [%] | Emax at 0.03 mg/kg (uterus [3]) [%] | Emax at 0.3 mg/kg (uterus [3]) [%] | dosage with significant reduction in sizes of lesions (endometriosis lesions; 28 days of treatment, 115 tested 0.1-1 mg/kg, 44 tested 0.3-10 mg/kg) [mg/kg] | reduction of lesion size (endometriosis lesions; s.c. daily, 4 weeks (FIG. 2A, FIG. 2B)) | Emax at 0.1 mg/kg (uterus [3]; maximum at dose 0.1 mg/kg) [%]
4 | CN(CCCCCCC1=C(c2ccc(F)cc2)CCCc2cc(O)ccc21)CCC[S+]([O-])CCCC(F)(F)C(F)(F)F (stereo not shown) [Example 118, 8-(4-fluorophenyl)-9-[6-(methyl{3-[(4,4,5,5,5-pentafluoropentyl)sulphinyl]propyl}amino)hexyl]-6,7-dihydro-5H-benzo[7]annulen-3-ol] | 2.3 | 9 | only observed at high dosage |  | 78 | 8 |  |  |  | 
5 | C[C@]12CC[C@@H]3c4ccc(O)cc4C[C@@H](CCCCCCCCC[S+]([O-])CCCC(F)(F)C(F)(F)F)[C@H]3[C@@H]1CC[C@@H]2O (stereo partly shown) [fulvestrant, reference compound] |  |  |  | 0 |  |  |  |  |  | 
6 | CN(CCCCCCC1=C(c2ccc(F)cc2)CCCc2cc(O)ccc21)CCCCS(=O)(=O)C1CCC(F)(F)CC1 [Example 122, 9-{6-[{4-[(4,4-difluorocyclohexyl)sulphonyl]butyl}(methyl)amino]hexyl}-8-(4-fluorophenyl)-6,7-dihydro-5H-benzo[7]annulen-3-ol] | 2.4 | 6 |  |  | 52 |  | 7 |  |  | 
7 | CN(CCCCCCC1=C(c2ccc(F)cc2)CCCc2cc(O)ccc21)CCCS(=O)(=O)CC1CCC(F)(F)CC1 [Example 123, 9-{6-[(3-{[(4,4-difluorocyclohexyl)methyl]sulphonyl}propyl)(methyl)amino]hexyl}-8-(4-fluorophenyl)-6,7-dihydro-5H-benzo[7]annulen-3-ol] | 2.5 | 13 |  |  | 56 |  | 8 |  |  | 
8 | CN(CCCCCCC1=C(c2ccc(F)cc2)CCCc2cc(O)ccc21)CCCS(=O)(=O)CCCC(F)(F)C(F)(F)F [Example 115, 8-(4-fluorophenyl)-9-[6-(methyl{3-[(4,4,5,5,5-pentafluoropentyl)sulphonyl]propyl}amino)hexyl]-6,7-dihydro-5H-benzo[7]annulen-3-ol] | 2.7 | 13 | only observed at high dosage |  | 50 | 3 |  | 1 | significant dose-dependent reduction of lesion size | 
